Source: patent US20260285853A1, “COMPOUNDS AND METHODS FOR MODULATING SPLICING” (REMIX THERAPEUTICS INC., priority 2023, published 2026)
Read-outs that look alike come from different tables or passages of the source.

Tests used:
Type in all cases: cell-based
[1] = system: HTT mRNA; assay: Splicing RT-qPCR assay (THP), Table 2A
[2] = system: MYB mRNA; assay: Splicing RT-qPCR assay (THP), Table 2A
[3] = system: HTT mRNA; assay: Gene panel canonical junction qPCR assay, decrease in CJ mRNA, Table 3
Procedure, shortened: (§1)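 IC50 denotes the concentration giving 50% decrease in canonical-junction mRNA, fitted by 4-parameter logistic to percentage response derived from ΔΔCt versus housekeeping gene and DMSO control. Cells (A673 or K562) exposed 24 h to 11-point 3-fold serial dilutions from 10 uM top, DMSO ≤0.25%; junction-spanning primer/probe qPCR.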

[4] = system: MYB mRNA; assay: as above
Procedure, shortened: as §1

[5] = system: SH-SY5Y (human neuroblastoma) cells; assay: Cell viability, Cell Titer Glo 2.0 assay; conditions: read-out: Viability SHSY5Y.3 GI50
Procedure, shortened: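 Viability was read by CellTiter-Glo 2.0 luminescence after a 72-hour compound exposure at 37° C. under 5% CO2. Cells were in IMDM plus 10% FBS containing 0.1% DMSO, and medium-only wells gave the blank.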

[6] = Table 2A (THP), AJ mRNA increase, read-out: HTT AJ (increase in alternative junction mRNA, AC50)
[7] = Table 2A (THP), CJ mRNA decrease, read-out: HTT CJ (decrease in canonical junction mRNA, IC50)
[8] = Table 2A (THP), AJ mRNA increase, read-out: MYB AJ (increase in alternative junction mRNA, AC50)
[9] = Table 2A (THP), CJ mRNA decrease, read-out: MYB CJ (decrease in canonical junction mRNA, IC50)
[10] = decrease in canonical junction (CJ) mRNA, gene panel qPCR, Table 3
[11] = Table 2A, THP, HTT alternative junction (AJ) mRNA, read-out: HTT AJ (AC50, increase in alternative junction mRNA)
[12] = Table 2A, THP, HTT canonical junction (CJ) mRNA, read-out: HTT CJ (IC50, decrease in canonical junction mRNA)
[13] = Table 2A, THP, MYB alternative junction (AJ) mRNA, read-out: MYB AJ (AC50, increase in alternative junction mRNA)
[14] = Table 2A, THP, MYB canonical junction (CJ) mRNA, read-out: MYB CJ (IC50, decrease in canonical junction mRNA)
[15] = decrease in CJ mRNA levels, canonical junction qPCR, gene panel

IC50 [1, 7]	IC50 [2, 9]	IC50 [3, 10]	IC50 [4, 10]	GI50 [5]	IC50 [1, 12]	IC50 [2, 14]	IC50 [3, 15]	IC50 [4, 15]	SMILES	AC50 [1, 6]	AC50 [2, 8]	AC50 [1, 11]	AC50 [2, 13]
> 10000 nM	> 10000 nM	> 10000 nM	> 10000 nM	> 10000 nM					Cc1cn2cc(NC(=O)c3ccc(N4CC5(CCNCC5)C4)c4cn(C)nc34)nc2c(C)n1 [Compound 562]	> 10000 nM	> 10000 nM		
> 10000 nM	> 10000 nM	> 10000 nM	> 10000 nM	1000 to 10000 nM					CNc1cc(N2CCC(NC3CC3)CC2)c2cn(C)nc2c1C(=O)Nc1cc2cn(C)nc2cc1OC [Compound 435, 2,2,2-trifluoroacetate]	> 10000 nM	> 10000 nM		
				> 10000 nM	> 10000 nM	> 10000 nM	> 10000 nM	> 10000 nM	COc1cc(N2CCC(NC3CC3)CC2)c2cn(C)nc2c1C(=O)Nc1cc(CNS(C)(=O)=O)c2nn(C)cc2c1 [Compound 853]			> 10000 nM	> 10000 nM
> 10000 nM	> 10000 nM	> 10000 nM	> 10000 nM	> 10000 nM					CCNC1CCN(c2cc(F)c(C(=O)Nc3cn4c(N)c(C)nc4c(F)c3OC)c3nn(C)cc23)CC1 [Compound 310, N-(3-amino-8-fluoro-7-methoxy-2-methyl-imidazo[1,2-a]pyridin-6-yl)-4-[4-(ethylamino)-1-piperidyl]-6-fluoro-2-methyl-indazole-7-carboxamide]	> 10000 nM	> 10000 nM		
100 to 1000 nM	< 100 nM	100 to 1000 nM	< 100 nM	< 100 nM					Cc1cn2cc(NC(=O)c3c(F)cc(N4CCC(NC5CC5)CC4)c4cn(C)nc34)c(OCC3CC3)c(F)c2n1 [Compound 321, 4-[4-(cyclopropylamino)-1-piperidyl]-N-[7-(cyclopropylmethoxy)-8-fluoro-2-methyl-imidazo[1,2-a]-pyridin-6-yl]-6-fluoro-2-methyl-indazole-7-carboxamide]	< 100 nM	< 100 nM		
100 to 1000 nM	< 100 nM	100 to 1000 nM	< 100 nM	< 100 nM					COc1c(NC(=O)c2c(F)cc(N3CCC(NC4CC4)CC3)c3cn(C)nc23)cc2cn(C)nc2c1Cl [Compound 433, N-(7-chloro-6-methoxy-2-methyl-indazol-5-yl)-4-[4-(cyclopropylamino)-1-piperidyl]-6-fluoro-2-methyl-indazole-7-carboxamide]	100 to 1000 nM	< 100 nM		
1000 to 10000 nM	100 to 1000 nM	1000 to 10000 nM	100 to 1000 nM	> 10000 nM					Cc1cn2cc(NC(=O)c3c(F)cc(N4CCC(NC5CC5)CC4)c4cn(C)nc34)cc(Oc3cccnn3)c2n1 [Compound 409]	> 10000 nM	1000 to 10000 nM		
1000 to 10000 nM	100 to 1000 nM	1000 to 10000 nM	100 to 1000 nM	> 10000 nM					CCNC1CCN(c2ncc(C(=O)Nc3cn4cc(C)nc(C)c4n3)c3nn(C)cc23)CC1 [Compound 394, N-(6,8-dimethylimidazo[1,2-a]pyrazin-2-yl)-4-[4-(ethylamino)-1-piperidyl]-2-methyl-pyrazolo-[4,3-c]-pyridine-7-carboxamide]	1000 to 10000 nM	< 100 nM		
100 to 1000 nM	100 to 1000 nM	100 to 1000 nM	100 to 1000 nM	100 to 1000 nM					Cc1cn2cc(NC(=O)c3ccc(N4CC[C@H]5CNCC[C@H]54)c4cn(C)nc34)nc2c(C)n1 (stereo in doubt) [Compound 502]	100 to 1000 nM	100 to 1000 nM		
> 10000 nM	1000 to 10000 nM	> 10000 nM	1000 to 10000 nM	> 10000 nM					CC(=O)NCc1nc(C)cn2cc(NC(=O)c3c(F)cc(N4CCC(NC5CC5)CC4)c4cn(C)nc34)nc12 [Compound 400, N-(8-(acetamido-methyl)-6-methylimidazo [1,2-a]-pyrazin-2-yl)-4-(4-(cyclopropylamino)-piper-idin-1-yl)-6-fluoro-2-meth-yl-2H-indazole-7-carbox-amide 2,2,2-trifluoro-acetate]	> 10000 nM	1000 to 10000 nM		
100 to 1000 nM	100 to 1000 nM	100 to 1000 nM	100 to 1000 nM	100 to 1000 nM					CNC1CCN(c2ccc(C(=O)Nc3cn4cc(C)nc(C)c4n3)c3nn(C)cc23)C1 (centres unmarked) [Compound 505]	100 to 1000 nM	100 to 1000 nM		
				1000 to 10000 nM	100 to 1000 nM	< 100 nM	100 to 1000 nM	< 100 nM	COc1cc2c(N3CCC(NC4CC4)CC3)ccc(C(=O)Nc3cc4cn(C)nc4cc3OC)n2n1 [Compound 632, 4-[4-(cyclopropylamino)-1-piperidyl]-2-methoxy-N-(6-methoxy-2-methyl-indazol-5-yl) pyrazolo[1,5-a]pyridine-7-carboxamide]			100 to 1000 nM	< 100 nM
				1000 to 10000 nM	1000 to 10000 nM	1000 to 10000 nM	1000 to 10000 nM	1000 to 10000 nM	CCNC1CCN(c2ccc(C(=O)Nc3cc4cn(C)nc4cc3OC)c3nc(OC)sc23)CC1 [Compound 669, 7-[4-(ethylamino)-1-piperidyl]-2-methoxy-N-(6-methoxy-2-methyl-indazol-5-yl)-1,3-benzo-thiazole-4-carboxamide]			1000 to 10000 nM	100 to 1000 nM
				100 to 1000 nM	> 10000 nM	< 100 nM	> 10000 nM	< 100 nM	COc1nc2c(C(=O)Nc3cc(C)c4nn(C)cc4n3)ccc(N3C[C@H](C)N[C@@H](C)C3)c2s1 [Compound 738, N-(2,7-dimethyl-2H-pyrazolo[4,3-b]pyridin-5-yl)-7-((3S,5S)-3,5-dimethylpiperazin-1-yl)-2-methoxybenzo[d]thiazole-4-carboxamide 2,2,2-trifluoroacetate]			> 10000 nM	< 100 nM
1000 to 10000 nM	> 10000 nM	1000 to 10000 nM	> 10000 nM	> 10000 nM					Cn1cc2c(N3CCC(NC4CC4)CC3)cc(F)c(C(=O)Nc3cccnc3O)c2n1 [Compound 411, 4-[4-(cyclopropylamino)-1-piperidyl]-6-fluoro-N-(2-hydroxy-3-pyridyl)-2-methyl-indazole-7-carboxamide]	> 10000 nM	> 10000 nM		
1000 to 10000 nM	1000 to 10000 nM	1000 to 10000 nM	1000 to 10000 nM	1000 to 10000 nM					CCNC1CCN(c2ccc(C(=O)Nc3cn4cc(C)nc(C)c4c3F)c3nn(C)cc23)CC1 [Compound 523, 4-[4-(ethylamino)-1-piperidyl]-N-(8-fluoro-1,3-dimethyl-pyrrolo[1,2-a]pyrazin-7-yl)-2-methyl-indazole-7-carboxamide]	1000 to 10000 nM	1000 to 10000 nM		
				1000 to 10000 nM	1000 to 10000 nM	100 to 1000 nM	1000 to 10000 nM	100 to 1000 nM	Cc1cn2c(N3CCC(NC4CC4)CC3)ccc(C(=O)Nc3cc(CO)c4nn(C)cc4c3)c2n1 [Compound 859]			1000 to 10000 nM	100 to 1000 nM
